According to patent publication US8242160B2, “Inhibitors of ubiquitin E1” (The United States of America, as represented by the …, priority 2005, dated 2012):

Assays:
E1 = molecular target: T1, E1 (Homo sapiens, UniProt P22314); assay: Loading of E1 with ubiquitin in cells, anti-E1 immunoblot; assay type: cell-based; conditions: 50 μM, 1 hour
T1 construct: endogenous in cells; host or cells: RPE cells
T1 sequence (P22314 1-1058): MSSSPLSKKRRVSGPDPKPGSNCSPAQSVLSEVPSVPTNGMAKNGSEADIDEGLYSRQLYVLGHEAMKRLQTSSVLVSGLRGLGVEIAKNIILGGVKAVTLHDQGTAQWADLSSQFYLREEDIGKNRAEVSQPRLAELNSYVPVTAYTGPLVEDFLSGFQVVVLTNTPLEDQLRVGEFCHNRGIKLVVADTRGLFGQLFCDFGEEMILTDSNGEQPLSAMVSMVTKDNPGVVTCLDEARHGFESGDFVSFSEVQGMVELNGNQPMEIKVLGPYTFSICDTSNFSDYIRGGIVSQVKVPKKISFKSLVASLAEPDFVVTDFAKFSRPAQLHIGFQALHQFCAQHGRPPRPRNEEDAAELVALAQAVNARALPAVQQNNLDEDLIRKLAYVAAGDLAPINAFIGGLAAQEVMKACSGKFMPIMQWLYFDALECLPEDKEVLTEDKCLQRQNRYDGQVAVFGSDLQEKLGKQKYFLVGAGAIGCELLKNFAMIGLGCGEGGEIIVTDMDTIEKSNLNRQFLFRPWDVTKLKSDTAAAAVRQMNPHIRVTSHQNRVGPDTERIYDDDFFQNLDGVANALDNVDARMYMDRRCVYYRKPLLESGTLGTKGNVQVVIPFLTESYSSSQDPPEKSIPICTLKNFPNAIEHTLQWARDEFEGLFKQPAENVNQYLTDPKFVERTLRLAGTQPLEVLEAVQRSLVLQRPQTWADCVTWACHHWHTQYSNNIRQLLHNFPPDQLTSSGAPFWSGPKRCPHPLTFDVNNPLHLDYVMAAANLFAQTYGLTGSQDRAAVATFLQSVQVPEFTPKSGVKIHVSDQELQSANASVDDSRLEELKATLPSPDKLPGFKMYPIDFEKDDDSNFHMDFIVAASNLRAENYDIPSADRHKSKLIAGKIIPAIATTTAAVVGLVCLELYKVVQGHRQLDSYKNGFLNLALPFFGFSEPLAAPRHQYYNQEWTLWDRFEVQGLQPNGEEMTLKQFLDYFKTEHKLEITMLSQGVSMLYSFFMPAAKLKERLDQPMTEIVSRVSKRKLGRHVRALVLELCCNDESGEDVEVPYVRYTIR
Procedure: RPE cells were treated with the E1 inhibitor of 4-[4-(5-nitro-furan-2-ylmethylene)-3,5-dioxo-pyrazolidin-1-yl]-benzoic acid methyl acid (designated as EI-41, 50 μM), HLI98C (50 μM) or iodoacetamide […] for 1 hour followed by lysis, SDS-PAGE under either non-reducing (FIG. 7A) or reducing (FIG. 7B) conditions and immunoblotting with anti-E1. Results are shown in FIGS. 7A and 7B, where the EI-41 compound is shown to inhibit the loading of EI with ubiquitin.

Nedd4 = assay: In vitro autoubiquitination of HECT E3 Nedd4; assay type: biochemical
Procedure: It was then evaluated whether 4-[4-(5-nitro-furan-2-ylmethylene)-3,5-dioxo-pyrazolidin-1-yl]-benzoic acid methyl acid blocks autoubiquitination of both RING finger E3s (Mdm2) and HECT E3s (Nedd4) in vitro.
5 pmole per experimental point of bacterially expressed GST-Mdm2 (or GST-Nedd) is coupled to glutathione Sepharose (GS) for 30 minutes at room temperature with tumbling, followed by 3× wash with 50 mM Tris pH 7.5. Following this, 20 μl of 1× buffer is added (40 μl 10× reaction buffer*, 40 μl 10× PCK**, 320 μl dH2O). The test compound in DMSO is then added to the desired concentration with an equal volume of DMSO used as a control. Samples are incubated with shaking for 1 hr at 23° C. To carry out the reaction, a pre-made cocktail of Rabbit E1 (Calbiochem #6620700)/UbCH5B/^32P Ub cocktail (1 μl/0.5 μl/1 μl) is added followed by 15 minutes shaking at 30° C. The reaction is terminated by addition of 8 μl 4× reducing SDS-PAGE loading buffer. After dissociating proteins from the beads at 100° C. for 2 minutes, samples are resolved on 6% PAGE followed by exposure of the dried gel to phosphor screen. Note: ^32P Ub is derived from GST-Ub that has been engineered to include a PKA phosphorylation site. This fusion protein is purified on glutathione Sepharose, phosphorylated, following this, the ^32P Ub ubiquitin is cleaved and purified away from the thrombin.

His6-E1 = molecular target: T2, His6-E1 (Homo sapiens, UniProt P22314); assay: Bead immobilized His6-E1: wash-out and glutathione competition; assay type: biochemical
T2 sequence (P22314 1-1058): T1 sequence (P22314 1-1058)
Procedure: Bead immobilized His6-E1 was treated with E1 inhibitor 4-[4-(5-nitro-furan-2-ylmethylene)-3,5-dioxo-pyrazolidin-1-yl]-benzoic acid methyl acid (E1 41) at a range of concentrations (0-50 μm) as indicated in FIG. 9A. The beads were subjected to wash (+wash) or no wash (−wash) conditions.
The ability of a compound to inhibit E1 activity may come from the ability of the compound to interfere with the formation of thiolester linkages between ubiquitin and E1. Next, the biological activity of E1 41 was tested to examine if it can be inhibited or prevented by treatment with an excess of reduced glutathione. […] Thus, E1 41 can act as a target for nucleophilic attack by active site thiol of E1 (e.g., a central double bond of a compound can serve as Michael-acceptor for the nucleophilic thiol in a Michael-type reaction).

## COC(=O)c1ccc(N2NC(=O)/C(=C/c3ccc([N+](=O)[O-])o3)C2=O)cc1 [E1-41, 4-[4-(5-nitro-furan-2-ylmethylene)-3,5-dioxo-pyrazolidin-1-yl]-benzoic acid methyl acid]
E1
  E1-Ub thiol-ester formation in RPE cells: inhibit E1-Ub thiol-ester formation
Nedd4
  autoubiquitination of Nedd4: inhibits the autoubiquitination of Nedd4
His6-E1; 0-50 μm, wash versus no wash
  removal of compound from E1 by washing: cannot be washed away
His6-E1; 50 μM compound, GSH 0.1-10 mM
  effect of reduced glutathione on the inhibitory action on E1: can be prevented by the addition of reduced glutathione (GSH) in a dose-dependent manner
